# Test results as given in ChEMBL document CHEMBL1158466, “Discovery of novel 2-aminobenzamide inhibitors of heat shock protein 90 as potent, selective and orally active antitumor agents” (J Med Chem, 2009).
# Legend:
# [1] = target: T1, Heat shock protein HSP90 (Homo sapiens, UniProt P07900+P08238); format: cell-based; conditions: au565
# [2] = Binding affinity to pig spleen Hsp90 ATPase pocket by Bradford assay; format: tissue-based, Sus scrofa
# [3] = Oral bioavailability in rat; format: ADME, organism-based; conditions: in vivo
# [4] = system: A-375; experiment: Antiproliferative activity against human A375 cells after 72 to 144 hrs by cyquant DNA dye method; format: functional, cell-based
# [5] = system: LNCaP; experiment: Antiproliferative activity against human LNCAP cells after 72 to 144 hrs by cyquant DNA dye method; format: functional, cell-based
# [6] = system: MCF7; experiment: Antiproliferative activity against human MCF7 cells after 72 to 144 hrs by cyquant DNA dye method; format: functional, cell-based
# [7] = system: HT-29; experiment: Antiproliferative activity against human HT-29 cells after 72 to 144 hrs by cyquant DNA dye method; format: functional, cell-based
# [8] = system: SW-620; experiment: Antiproliferative activity against human SW620 cells after 72 to 144 hrs by cyquant DNA dye method; format: functional, cell-based
# [9] = system: SK-MEL-5; experiment: Antiproliferative activity against human SK-MEL-5 cells after 72 to 144 hrs by cyquant DNA dye method; format: functional, cell-based
# [10] = system: PC-3; experiment: Antiproliferative activity against human PC3 cells after 72 to 144 hrs by cyquant DNA dye method; format: functional, cell-based
# [11] = system: MDA-MB-231; experiment: Antiproliferative activity against human MDA-MB-231 cells after 72 to 144 hrs by cyquant DNA dye method; format: functional, cell-based
# [12] = system: NCI-H460; experiment: Antiproliferative activity against human NCI-H460 cells after 72 to 144 hrs by cyquant DNA dye method; format: functional, cell-based
# [13] = system: HCT-15; experiment: Antiproliferative activity against human HCT15 cells after 72 to 144 hrs by cyquant DNA dye method; format: functional, cell-based
# [14] = system: K562; experiment: Antiproliferative activity against human K562 cells after 72 to 144 hrs by cyquant DNA dye method; format: functional, cell-based
# [15] = target: T1, Heat shock protein HSP90; conditions: a-375
# Description: Inhibition of Hsp90 in human A375 cells assessed as Hsp70 induction after 24 hrs by high content screening
# [16] = target: T1, Heat shock protein HSP90; conditions: a-375; remark: listed apart in the source
# Description: Inhibition of Hsp90 in human A375 cells assessed as pS6 degradation after 24 hrs by high content screening
# [17] = target: T1, Heat shock protein HSP90; conditions: au565
# Description: Inhibition of Hsp90 in human AU565 cells assessed as pERK degradation after 24 hrs by high content screening
# [18] = Oral bioavailability in mouse; format: ADME, organism-based; conditions: in vivo
# [19] = system: Liver microsomes; experiment: Metabolic stability in human liver microsomes at 1 uM after 1 hr; format: ADME, Microsome
# [20] = Metabolic stability in human liver S9 fraction assessed as drug remaining at 1 uM after 1 hr; format: ADME, subcellular; conditions: read-out: Stability
# [21] = Solubility of the compound; format: physicochemical
# [22] = Aqueous solubility in phosphate-buffered saline at pH 7.4; format: physicochemical
SMILES,IC50 [1] [nM],Kd [2] [nM],also measured
CC1(C)CC(=O)c2c(C(F)(F)F)nn(-c3ccc(C(N)=O)c(NCCCN4CCCC4=O)c3)c2C1,264,94,
CC(C)c1nn(-c2ccc(C(N)=O)c(N[C@H]3CC[C@H](O)CC3)c2)c2c1C(=O)CC(C)(C)C2,203,177,
COc1cc(Nc2cc(-n3cc(C)c4c3CCCC4=O)ccc2C(N)=O)cc(OC)c1OC,1610,940,
Cc1cn(-c2ccc(C(N)=O)c(NCCN3CCOCC3)c2)c2c1C(=O)CC(C)(C)C2,> 4000,294,
CC1(C)CC(=O)c2c(C(F)F)nn(-c3ccc(C(N)=O)c(N[C@H]4CC[C@H](O)CC4)c3)c2C1,16,98,
CC1(C)CC(=O)c2c(C(F)(F)F)nn(-c3ccc(C(N)=O)c(N[C@H]4CC[C@@H](O)CC4)c3)c2C1,,530,
Cc1nn(-c2ccc(C(N)=O)c(NCC3CC3)c2)c2c1C(=O)CC(C)(C)C2,184,51,
CCCCNc1cc(-n2c(C)cc3c2CC(C)(C)CC3=O)ccc1C(N)=O,> 10000,390,
COc1cc(Nc2cc(-n3c(C)cc4c3CC(C)(C)CC4=O)ccc2C(N)=O)cc(OC)c1OC,490,220,
COc1cc(Nc2cc(-n3ccc4c3CC(C)(C)CC4=O)ccc2C(N)=O)cc(OC)c1OC,1830,0.59,
Cc1cn(-c2ccc(C(N)=O)c(N[C@H]3CC[C@H](O)CC3)c2)c2c1C(=O)CC(C)(C)C2,7,27,bioavailability [3]: 10%; IC50 [4]: 9 nM; IC50 [5]: 4 nM; IC50 [6]: 10 nM; IC50 [7]: 7 nM; IC50 [8]: 6 nM; IC50 [9]: 7 nM; IC50 [10]: 14 nM; IC50 [11]: 10 nM; IC50 [12]: 248 nM; IC50 [13]: 61 nM; IC50 [14]: 3 nM; IC50 [15]: 14 nM; IC50 [16]: 7 nM; IC50 [17]: 16 nM
Cc1nn(-c2ccc(C(N)=O)c(NC3CCC3)c2)c2c1C(=O)CC(C)(C)C2,229,114,
Cc1nn(-c2ccc(C(N)=O)c(NC3CC=CC3)c2)c2c1C(=O)CC(C)(C)C2,111,15,
CC1(C)CC(=O)c2c(C(F)(F)F)nn(-c3ccc(C(N)=O)c(N[C@H]4CC[C@H](O)CC4)c3)c2C1 [SNX-2112],,16,"bioavailability [18]: 40%; IC50 [4]: 23 nM; IC50 [5]: 3 nM; IC50 [6]: 53 nM; IC50 [7]: 3 nM; IC50 [8]: 3 nM; IC50 [9]: 6 nM; IC50 [10]: 17 nM; IC50 [11]: 6 nM; IC50 [12]: 18 nM; IC50 [13]: 52 nM; IC50 [14]: 6 nM; Stability [19]: Stable; remaining at 1 h, 1 µM [20]: 88%; solubility [21]: 170 µM; solubility [22]: 6 µM"
C=CCNC1=C2C[C@@H](C)C[C@H](OC)[C@H](O)[C@@H](C)/C=C(\C)[C@H](OC(N)=O)[C@@H](OC)/C=C\C=C(/C)C(=O)NC(=CC1=O)C2=O [TANESPIMYCIN],,87,IC50 [4]: 1290 nM; IC50 [5]: 82 nM; IC50 [6]: 0.3 nM; IC50 [7]: 0.1 nM; IC50 [8]: 328 nM; IC50 [9]: 134 nM; IC50 [10]: 9 nM; IC50 [11]: 194 nM; IC50 [12]: 255 nM; IC50 [13]: 1490 nM; IC50 [14]: 126 nM

# Continued, in another order:
IC50 [1] [nM],Kd [2] [nM],SMILES,also measured
50,43,Cc1nn(-c2ccc(C(N)=O)c(NC3CCOCC3)c2)c2c1C(=O)CC(C)(C)C2,
64,86,Cc1c2c(n(-c3ccc(C(N)=O)c(N[C@H]4CC[C@H](O)CC4)c3)c1C)CC(C)(C)CC2=O,
418,1020,Cc1cn(-c2ccc(C(N)=O)c(N[C@@H](C)c3ccccc3)c2)c2c1C(=O)CC(C)(C)C2,
226,63,CSCCNc1cc(-n2nc(C)c3c2CC(C)(C)CC3=O)ccc1C(N)=O,
> 7000,843,Cc1cn(-c2ccc(C(N)=O)c(N3CCNCC3)c2)c2c1C(=O)CC(C)(C)C2,
6400,370,Cc1cc2c(n1-c1ccc(C(N)=O)c(Nc3ccccc3)c1)CC(C)(C)CC2=O,
> 10000,390,COCCNc1cc(-n2c(C)cc3c2CC(C)(C)CC3=O)ccc1C(N)=O,
> 100000,3730,Cc1cc2c(n1-c1ccc(C(N)=O)cc1)CC(C)(C)CC2=O,
> 10000,1960,CCCCCc1cc(-n2c(C)cc3c2CC(C)(C)CC3=O)ccc1C(N)=O,
46,41,CC1(C)CC(=O)c2c(CC3CC3)nn(-c3ccc(C(N)=O)c(N[C@H]4CC[C@H](O)CC4)c3)c2C1,
> 10000,> 50000,CCCCOc1cc(-n2c(C)cc3c2CC(C)(C)CC3=O)ccc1C(N)=O,
1590,690,COc1ccc(Nc2cc(-n3c(C)cc4c3CC(C)(C)CC4=O)ccc2C(N)=O)cc1,
> 10000,1060,Cc1cc2c(n1-c1ccc(C(N)=O)c(Sc3ccccc3)c1)CC(C)(C)CC2=O,
46,390,COc1cc(Nc2cc(-n3cc(C)c4c3CC(C)(C)CC4=O)ccc2C(N)=O)cc(OC)c1OC,
35,11,CC1(C)CC(=O)c2c(C(F)F)nn(-c3ccc(C(N)=O)c(NC4CCSCC4)c3)c2C1,
> 1000,216,Cc1nn(-c2ccc(C(N)=O)c(NCc3ccco3)c2)c2c1C(=O)CC(C)(C)C2,
147,14,Cc1nn(-c2ccc(C(N)=O)c(NC(C)S(C)(=O)=O)c2)c2c1C(=O)CC(C)(C)C2 (stereo unspecified),
115,67,COCC(C)Nc1cc(-n2nc(C)c3c2CC(C)(C)CC3=O)ccc1C(N)=O (stereo unspecified),
9,20,CCc1nn(-c2ccc(C(N)=O)c(N[C@H]3CC[C@H](O)CC3)c2)c2c1C(=O)CC(C)(C)C2,
30,16,Cc1nn(-c2ccc(C(N)=O)c(N[C@H]3CC[C@H](O)CC3)c2)c2c1C(=O)CC(C)(C)C2,
181,78,COCC(COC)Nc1cc(-n2nc(C(F)(F)F)c3c2CC(C)(C)CC3=O)ccc1C(N)=O,
